# From ChEMBL document CHEMBL3885881, “DrugMatrix”
# Species on record: Rattus norvegicus
# Assay: DrugMatrix - Regimen: Daily Repeat
# Type: toxicity, organism-based, Sprague-Dawley
# Set-up: regimen Daily Repeat, gender Male, age 6-8 weeks
# Conditions: in vivo, po, route oral GAVAGE, vehicle 100 % WATER; for ABSOLUTE BASOPHIL / ABSOLUTE EOSINOPHIL / ABSOLUTE LYMPHOCYTE / ABSOLUTE MONOCYTE / ABSOLUTE SEGMENTED NEUTROPHIL / BASOPHIL / EOSINOPHIL / ERYTHROCYTE COUNT / HEMATOCRIT / HEMOGLOBIN / LEUKOCYTE COUNT / LYMPHOCYTE / MEAN CORPUSCULAR HEMOGLOBIN / MEAN CORPUSCULAR HEMOGLOBIN CONCENTRATION / MEAN CORPUSCULAR VOLUME / MONOCYTE / NEUTROPHIL / NUCLEATED RED BLOOD CELLS / PLATELET COUNT: tissue Blood; for ALANINE AMINOTRANSFERASE / ALBUMIN / ALKALINE PHOSPHATASE / ASPARTATE AMINOTRANSFERASE / BLOOD UREA NITROGEN / CARBON DIOXIDE / CHLORIDE / CHOLESTEROL / CREATINE PHOSPHOKINASE / CREATININE / GLUCOSE / LACTATE DEHYDROGENASE / LIPASE / PHOSPHORUS / POTASSIUM / SODIUM / TOTAL BILIRUBIN / TOTAL PROTEIN / URIC ACID: tissue Plasma
# [1] = 20 mg/kg, 120 h, dose level Low, time 5 day
# [2] = 70 mg/kg, 72 h, dose level High, time 3 day
# [3] = 70 mg/kg, 120 h, dose level High, time 5 day
structure (smiles),measurement,setting,value
CCCC(C)C1(CC)C(=O)NC(=O)NC1=O (centres undefined) [PENTOBARBITAL],ABSOLUTE BASOPHIL,[1],0 CELLS/uL
same,ABSOLUTE EOSINOPHIL,[1],0 CELLS/uL
same,ABSOLUTE LYMPHOCYTE,[1],9855 CELLS/uL
same,ABSOLUTE MONOCYTE,[1],58 CELLS/uL
same,ABSOLUTE SEGMENTED NEUTROPHIL,[1],1187 CELLS/uL
same,BASOPHIL,[1],0%
same,EOSINOPHIL,[1],0%
same,ERYTHROCYTE COUNT,[1],5.44 x10E6/uL
same,HEMATOCRIT,[1],34.1%
same,HEMOGLOBIN,[1],13.23 G/DL
same,LEUKOCYTE COUNT,[1],11.1 x10E3/uL
same,LYMPHOCYTE,[1],89%
same,MEAN CORPUSCULAR HEMOGLOBIN,[1],24.33 pg
same,MEAN CORPUSCULAR HEMOGLOBIN CONCENTRATION,[1],38.83 G/DL
same,MEAN CORPUSCULAR VOLUME,[1],62.67 fL
same,MONOCYTE,[1],0.67%
same,NEUTROPHIL,[1],10.33%
same,NUCLEATED RED BLOOD CELLS,[1],0 /100WBC
same,PLATELET COUNT,[1],1231.67 x10E3/uL
same,ALANINE AMINOTRANSFERASE,[1],60.33 u/L
same,ALBUMIN,[1],3.8 G/DL
same,ALKALINE PHOSPHATASE,[1],346 u/L
same,ASPARTATE AMINOTRANSFERASE,[1],88.33 u/L
same,BLOOD UREA NITROGEN,[1],17 mg/dL
same,CARBON DIOXIDE,[1],32.67 mmol/L
same,CHLORIDE,[1],99.33 MEQ/L
same,CHOLESTEROL,[1],71.67 mg/dL
same,CREATINE PHOSPHOKINASE,[1],344.67 u/L
same,CREATININE,[1],0.19 mg/dL
same,GLUCOSE,[1],155 mg/dL
same,LACTATE DEHYDROGENASE,[1],163 u/L
same,LIPASE,[1],8.67 u/L
same,PHOSPHORUS,[1],11.17 mg/dL
same,POTASSIUM,[1],5.63 MEQ/L
same,SODIUM,[1],145.17 MEQ/L
same,TOTAL BILIRUBIN,[1],0.17 mg/dL
same,TOTAL PROTEIN,[1],5.63 G/DL
same,URIC ACID,[1],0.67 mg/dL
same,ABSOLUTE BASOPHIL,[2],0 CELLS/uL
same,ABSOLUTE EOSINOPHIL,[2],29 CELLS/uL
same,ABSOLUTE LYMPHOCYTE,[2],9707 CELLS/uL
same,ABSOLUTE MONOCYTE,[2],106.67 CELLS/uL
same,ABSOLUTE SEGMENTED NEUTROPHIL,[2],824 CELLS/uL
same,BASOPHIL,[2],0%
same,EOSINOPHIL,[2],0.33%
same,ERYTHROCYTE COUNT,[2],5.46 x10E6/uL
same,HEMATOCRIT,[2],34.73%
same,HEMOGLOBIN,[2],13.4 G/DL
same,LEUKOCYTE COUNT,[2],10.67 x10E3/uL
same,LYMPHOCYTE,[2],91%
same,MEAN CORPUSCULAR HEMOGLOBIN,[2],24.57 pg
same,MEAN CORPUSCULAR HEMOGLOBIN CONCENTRATION,[2],38.63 G/DL
same,MEAN CORPUSCULAR VOLUME,[2],63.53 fL
same,MONOCYTE,[2],1%
same,NEUTROPHIL,[2],7.67%
same,NUCLEATED RED BLOOD CELLS,[2],0 /100WBC
same,PLATELET COUNT,[2],792 x10E3/uL
same,ALANINE AMINOTRANSFERASE,[2],58 u/L
same,ALBUMIN,[2],4.2 G/DL
same,ALKALINE PHOSPHATASE,[2],300.33 u/L
same,ASPARTATE AMINOTRANSFERASE,[2],75.67 u/L
same,BLOOD UREA NITROGEN,[2],13 mg/dL
same,CARBON DIOXIDE,[2],34.67 mmol/L
same,CHLORIDE,[2],101.33 MEQ/L
same,CHOLESTEROL,[2],81.33 mg/dL
same,CREATINE PHOSPHOKINASE,[2],230 u/L
same,CREATININE,[2],0.16 mg/dL
same,GLUCOSE,[2],139 mg/dL
same,LACTATE DEHYDROGENASE,[2],113.33 u/L
same,LIPASE,[2],9 u/L
same,PHOSPHORUS,[2],11.77 mg/dL
same,POTASSIUM,[2],6.23 MEQ/L
same,SODIUM,[2],146.57 MEQ/L
same,TOTAL BILIRUBIN,[2],0.2 mg/dL
same,TOTAL PROTEIN,[2],6.17 G/DL
same,URIC ACID,[2],0.73 mg/dL
same,ABSOLUTE BASOPHIL,[3],0 CELLS/uL
same,ABSOLUTE EOSINOPHIL,[3],23.33 CELLS/uL
same,ABSOLUTE LYMPHOCYTE,[3],7811.33 CELLS/uL
same,ABSOLUTE MONOCYTE,[3],0 CELLS/uL
same,ABSOLUTE SEGMENTED NEUTROPHIL,[3],598.67 CELLS/uL
same,BASOPHIL,[3],0%
same,EOSINOPHIL,[3],0.33%
same,ERYTHROCYTE COUNT,[3],5.7 x10E6/uL
same,HEMATOCRIT,[3],36%
same,HEMOGLOBIN,[3],13.73 G/DL
same,LEUKOCYTE COUNT,[3],8.43 x10E3/uL
same,LYMPHOCYTE,[3],92.33%
same,MEAN CORPUSCULAR HEMOGLOBIN,[3],24.1 pg
same,MEAN CORPUSCULAR HEMOGLOBIN CONCENTRATION,[3],38.17 G/DL
same,MEAN CORPUSCULAR VOLUME,[3],63.17 fL
same,MONOCYTE,[3],0%
same,NEUTROPHIL,[3],7.33%
same,NUCLEATED RED BLOOD CELLS,[3],0 /100WBC
same,PLATELET COUNT,[3],1184.67 x10E3/uL
same,ALANINE AMINOTRANSFERASE,[3],60 u/L
same,ALBUMIN,[3],4.2 G/DL
same,ALKALINE PHOSPHATASE,[3],346 u/L
same,ASPARTATE AMINOTRANSFERASE,[3],81 u/L
same,BLOOD UREA NITROGEN,[3],14 mg/dL
same,CARBON DIOXIDE,[3],33 mmol/L
same,CHLORIDE,[3],99 MEQ/L
same,CHOLESTEROL,[3],74.33 mg/dL
same,CREATINE PHOSPHOKINASE,[3],461.33 u/L
same,CREATININE,[3],0.13 mg/dL
same,GLUCOSE,[3],131.67 mg/dL
same,LACTATE DEHYDROGENASE,[3],142.67 u/L
same,LIPASE,[3],11.67 u/L
same,PHOSPHORUS,[3],10.57 mg/dL
same,POTASSIUM,[3],5.73 MEQ/L
same,SODIUM,[3],145.3 MEQ/L
same,TOTAL BILIRUBIN,[3],0.2 mg/dL
same,TOTAL PROTEIN,[3],6.17 G/DL
same,URIC ACID,[3],0.53 mg/dL
